From US9441012B2, “Fluorinated epoxyketone-based compounds and uses thereof as proteasome inhibitors” (FLUORINOV PHARMA INC., priority 2012, dated 2016)

Columns and labels:
Experiment in all cases: NCI 60 human tumor cell line screen (SRB)
Format in all cases: cell-based
[1] = test system: NCI-H226; conditions: NCI-H226 (Non-Small Cell Lung Cancer); 48 h
How it was run: (§1)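 Cells plated 24 h before dosing, with time-zero plates TCA-fixed at drug addition; five concentrations (10-fold or ½-log dilutions) added and incubated 48 h at 37 °C, 5% CO2. Adherent cells fixed with 10% TCA, stained with 0.4% SRB, absorbance read at 515 nm; GI50, TGI and LC50 derived from percentage growth versus time zero and control.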

[2] = test system: PC-3; conditions: PC-3 (Prostate Cancer); 48 h
How it was run: as §1

[3] = test system: HCT-116; conditions: HCT-116 (Colon Cancer); 48 h
How it was run: as §1

[4] = test system: UACC-62; conditions: UACC-62 (Melanoma); 48 h
How it was run: as §1

[5] = test system: HT29; conditions: HT29 (Colon Cancer); 48 h
How it was run: as §1

[6] = test system: SNB-19; conditions: SNB-19 (CNS Cancer); 48 h
How it was run: as §1

[7] = test system: SF-295; conditions: SF-295 (CNS Cancer); 48 h
How it was run: as §1

[8] = test system: UO-31; conditions: UO-31 (Renal Cancer); 48 h
How it was run: as §1

[9] = test system: KM12; conditions: KM12 (Colon Cancer); 48 h
How it was run: as §1

[10] = test system: HCT-15; conditions: HCT-15 (Colon Cancer); 48 h
How it was run: as §1

[11] = test system: HCC-2998; conditions: HCC-2998 (Colon Cancer); 48 h
How it was run: as §1

[12] = test system: SK-MEL-5; conditions: SK-MEL-5 (Melanoma); 48 h
How it was run: as §1

Row | Structure (SMILES) | Log10GI50 [1] | Log10TGI50 [1] | Log10GI50 [2] | Log10LC50 [2] | Log10TGI50 [2] | Log10GI50 [3] | Log10LC50 [3] | Log10TGI50 [3] | Log10GI50 [4] | Log10LC50 [4] | Log10TGI50 [4] | Log10GI50 [5] | Log10LC50 [5] | Log10TGI50 [5] | Log10GI50 [6] | Log10LC50 [6] | Log10TGI50 [6] | Log10GI50 [7] | Log10LC50 [7] | Log10TGI50 [7] | other results
1 | CC(C)C[C@H](NC(=O)[C@H](Cc1ccccc1)NC(=O)[C@H](COC(F)F)NC(=O)CN1CCOCC1)C(=O)[C@@]1(C)CO1 [Example 25, (2S)-2-[[(2S)-3-(difluoromethoxy)-2-[(2-morpholinoacetyl)amino]propanoyl]amino]-N-[(1S)-3-methyl-1-[(2R)-2-methyloxirane-2-carbonyl]butyl]-3-phenyl-propanamide] | −7.77 | −7.43 | −7.45 | −5.14 | −6.80 | −7.70 | −6.55 | −7.30 | −7.35 | −4.58 | −6.63 | −7.45 | >−4.00 | −5.84 | −7.23 | >−4.00 | >−4.00 | −7.68 | −6.49 | −7.26 | Log10LC50 [1]: −7.10; Log10GI50 [8]: −6.62; Log10LC50 [8]: −5.17; Log10TGI50 [8]: −5.95; Log10GI50 [9]: −7.72; Log10LC50 [9]: −7.06; Log10TGI50 [9]: −7.39; Log10GI50 [10]: −6.47; Log10LC50 [10]: >−4.00; Log10TGI50 [10]: >−4.00; Log10GI50 [11]: −7.74; Log10LC50 [11]: −7.20; Log10TGI50 [11]: −7.47; Log10GI50 [12]: −7.60; Log10LC50 [12]: −6.49; Log10TGI50 [12]: −7.17
2 | Cc1ncc(C(=O)N[C@@H](COC(F)F)C(=O)N[C@@H](COC(F)F)C(=O)N[C@@H](Cc2ccccc2)C(=O)[C@@]2(C)CO2)s1 [Example 1, 2-methyl-thiazole-5-carboxylic acid ((S)-1-{(S)-1-[(S)-1-benzyl-2-((R)-2-methyloxiranyl)-2-oxo-ethylcarbamoyl]-2-difluoromethoxyethylcarbamoyl}-2-difluoromethoxyethyl)-amide] | −7.44 | −6.84 | −6.48 | >−4.00 | −4.99 | −7.32 | −6.17 | −6.71 | −6.68 | −4.95 | −5.78 | −7.29 | −4.32 | −6.22 | −6.49 | >−4.00 | >−4.00 | −7.17 | −4.88 | −6.24 | Log10GI50 [8]: −5.84; Log10LC50 [8]: −4.59; Log10TGI50 [8]: −5.32; Log10GI50 [9]: −6.88; Log10LC50 [9]: −6.10; Log10TGI50 [9]: −6.49; Log10GI50 [10]: −5.65; Log10LC50 [10]: −4.16; Log10TGI50 [10]: −4.93; Log10GI50 [11]: −6.74; Log10LC50 [11]: −6.15; Log10TGI50 [11]: −6.45; Log10GI50 [12]: −7.15; Log10LC50 [12]: −5.47; Log10TGI50 [12]: −6.34
3 | C[C@]1(C(=O)[C@H](Cc2ccccc2)NC(=O)[C@H](COC(F)F)NC(=O)[C@H](COC(F)F)NC(=O)CN2CCOCC2)CO1 [Example 26, (S)-N-{(S)-1-[(S)-1-Benzyl-2-((R)-2-methyl-oxiranyl)-2-oxo-ethylcarbamoyl]-2-difluoromethoxyethyl}-3-difluoromethoxy-2-(2-morpholin-4-yl-acetylamino)-propio-namide] | −7.77 | −7.43 | −7.45 | −5.14 | −6.80 | −7.70 | −6.55 | −7.30 | −7.35 | −4.58 | −6.63 | −7.45 | >−4.00 | −5.84 | −7.23 | >−4.00 | >−4.00 | −7.68 | −6.49 | −7.26 | Log10LC50 [1]: −7.10; Log10GI50 [8]: −6.62; Log10LC50 [8]: −5.17; Log10TGI50 [8]: −5.95; Log10GI50 [9]: −7.72; Log10LC50 [9]: −7.06; Log10TGI50 [9]: −7.39; Log10GI50 [10]: −6.47; Log10LC50 [10]: >−4.00; Log10TGI50 [10]: >−4.00; Log10GI50 [11]: −7.74; Log10LC50 [11]: −7.20; Log10TGI50 [11]: −7.47; Log10GI50 [12]: −7.60; Log10LC50 [12]: −6.49; Log10TGI50 [12]: −7.17
4 | C[C@]1(C(=O)[C@H](Cc2ccccc2)NC(=O)[C@H](Cc2ccccc2)NC(=O)[C@H](COC(F)F)NC(=O)CN2CCOCC2)CO1 [Example 29] | −7.64 | −7.24 | −7.04 | >−4.00 | −6.40 | −7.46 | >−4.00 | −5.91 | −7.00 | >−4.00 | −6.37 | −7.31 | >−4.00 | −4.77 | −6.51 | >−4.00 | >−4.00 | −7.19 | −5.94 | −6.55 | Log10LC50 [1]: −6.51; Log10GI50 [8]: −6.46; Log10LC50 [8]: −4.62; Log10TGI50 [8]: −5.71; Log10GI50 [9]: −7.35; Log10LC50 [9]: −6.27; Log10TGI50 [9]: −6.77; Log10GI50 [10]: −6.20; Log10LC50 [10]: >−4.00; Log10TGI50 [10]: >−4.00; Log10GI50 [11]: −6.80; Log10LC50 [11]: −6.21; Log10TGI50 [11]: −6.50; Log10GI50 [12]: −7.22; Log10LC50 [12]: −6.20; Log10TGI50 [12]: −6.66
